Measured values published in patent publication US7354949B2, “Therapeutic agent for bladder irritative symptoms associated with benign prostatic hyperplasia” (Kyowa Hakko Kogyo Co., Ltd., priority 2001, dated 2008).

Tests used:
[1] = test system: rats with partial urethral obstruction; assay: Inhibitory activity on urinary frequency due to partial urethral obstruction (micturition test in metabolic cages); format: in vivo, rat
Protocol: (§1) The experiment was carried out according to the method of Saito, et al. [J. Urol., Vol. 150, pp. 1045-1051 (1993)].
(§2) Male SD rats of 8 to 9 weeks of age (supplied by Japan SLC) were used in the test. Five to seven animals of these rats were put in each metal cage and reared by allowing them to freely take commercially available chow and water, in an animal room at room temperature between 19 and 25° C. and humidity between 30 and 70% under illumination for 12 hours (from 7:00 a.m. to 7:00 p.m.) per day.
The rats were subjected to operation of partial urethral obstruction. Each rat was anesthetized by intraperitoneal administration of 50 mg/kg pentobarbital sodium (Dainippon Pharmaceutical Co., Ltd.) and placed in the supine position. The abdominal midline incision was made in a length of about 1 cm to expose the bladder, prostate and the urethra. After the bladder neck and base were peeled from the prostate, two surgical suture threads (No. 3, Natsume Seisakusho Co., Ltd.) were passed behind the urethral base. A polyethylene tube (PE-200, Nippon Becton Dickinson Co., Ltd.) was placed along the urethra, and the urethra was loosely double-ligated together with the tube. The ligation was made in such a manner that the urethra was not pressed with the polyethylene tube and the suture was not slack. Then, the polyethylene tube was pulled out and the urethra was partially obstructed. The incised part of abdomen was sutured with a surgical thread.
Five to seven days after the partial urethral obstruction operation, the rats with partial urethral obstruction and the sham-operated rats were put in metabolic cages (KN-649, Natsume Seisakusho Co., Ltd.). For acclimation, the rats were reared for one day with free drinking and feeding, and the micturition test was started the following day. The amount of urination in the rats was continuously measured as the weight using an electronic balance (HF-200, A & D Company Ltd.), and was recorded on a thermal array recorder (RTA-1200, Nihon Kohden Corp.) via a direct current amplifier (AD-601G, Nihon Kohden Corp.). The data were collected during the light period under illumination (9:00-18:00) and the dark period without illumination (19:00-4:00), and the number of micturitions and the micturition volume in each period were measured to calculate the urinary frequency (the number of micturitions per 9 hours), the voided volume per micturition and the total urine volume as the measurement parameters. The voided volume per micturition was calculated by dividing the total urine volume per 9 hours by the urinary frequency per 9 hours. On the next day, a test compound or a vehicle (0.5 w/v% aqueous methylcellulose 400 cP solution) was orally administered twice (between 8:00 and 9:00, and between 18:00 and 19:00). The number of micturitions and the urine volume were measured from 9:00 to 18:00 and from 19:00 to 4:00 in the same manner as on the previous day to obtain the measurement values. The changes in the values of each parameter induced by the administration of the compound were also calculated. In the sham-operated group, the urinary frequency, the voided volume per micturition and the total urine volume obtained on the first day of the micturition test were compared with those in the groups of partial urethral obstruction. The average±standard error of the urinary frequency, voided volume per micturition and the total urine volume was calculated for each group.

[2] = test system: rats with partial urethral obstruction; assay: Activity to increase the bladder capacity of rats with partial urethral obstruction (intravesical saline infusion); format: in vivo, rat; conditions: summary of Test Example 2
Protocol: as §1
as §2, with “to seven rats were” for “to seven animals of these rats were”, “room at a room temperature” for “room at room temperature”
The rats were subjected to operation of partial urethral obstruction. […]
Five to seven days after the operation of the partial urethral obstruction and the catheter implantation, the rats with partial urethral obstruction and the sham-operated rats were put in Bollman cages (KN-326-1, Natsume Seisakusho Co., Ltd.) under restraint. […] One end of the cock was connected to a pressure transducer (DX-360, Nihon Kohden Corp.), and the intravesical pressure signal was amplified via a strain pressure amplifier (AP-601G, Nihon Kohden Corp.), measured with a polygraph (RMP-6008, Nihon Kohden Corp.) and recorded on a thermal array recorder (RTA-1200, Nihon Kohden Corp.). […] The bladder capacity was calculated from the period of time until occurrence of micturition (infusion rate 6 ml/h×infusion time). […]

dd male mice = assay: Acute toxicity test; format: in vivo; conditions: oral administration, mortality on the seventh day
Protocol: The test compound was administered orally or intraperitoneally to animals per group of dd male mice (body weight: 20±1 g). The minimum lethal dose (MLD) value was obtained by observing mortality on the seventh day after the administration.

[3] = Dark period (Active period), after oral administration
[4] = Dark period (Active period), before administration
[5] = Light period (Inactive period), after oral administration
[6] = Light period (Inactive period), before administration

Compound C[C@](O)(C(=O)Nc1cccc2c1C(=O)c1sccc1CS2(=O)=O)C(F)(F)F [Compound 1, (S)-(+)-N-(5,5-dioxido-10-oxo-4,10-dihydrothieno[3,2-c][1]benzothiepin-9-y1)-3,3,3-trifluoro-2-hydroxy-2-methylpropanamide] has a Total urine volume [1, 3] of 4.83 ± 0.83 mL/9 hours, a Urinary frequency [1, 3] of 6.7 ± 1.2 micturitions/9 hours and a Total urine volume [1, 4] of 3.57 ± 0.57 mL/9 hours. For the same compound, the Urinary frequency [1, 4] was 10.0 ± 1.3 micturitions/9 hours, the Total urine volume [1, 5] was 4.76 ± 0.78 mL/9 hours and the Urinary frequency [1, 5] was 5.3 ± 0.4 micturitions/9 hours. For the same compound, the Total urine volume [1, 6] was 4.80 ± 0.31 mL/9 hours, the Urinary frequency [1, 6] was 8.7 ± 0.8 micturitions/9 hours and the “effect on urinary frequency (in words)” value ([1]; summary of Test Example 1) was “significantly decreased”. For the same compound, the “effect on voided volume per micturition (in words)” value ([1]; summary of Test Example 1) was “tended to increase”, the “effect on bladder capacity (in words)” value [2] was “tended to increase” and the “effect on micturition volume (in words)” value [2] was “significantly increased”. For the same compound, the “minimum lethal dose (MLD)” value (dd male mice) was over 1000 mg/kg.
